US20250195490A1, “ALPHA-METHYLENE AND AMINOMETHYL LACTONES AND LACTAMS FOR TREATMENT OF CLOSTRIDIOIDES DIFFICILE INFECTION (CDI)” (Purdue Research Foundation, priority 2022, published 2025)

Tests used:
E. faecalis (VRE) = assay: microbe, parasite or virus in culture; assay type: cell-based, Enterococcus faecalis; details: aerobic, 37° C., at least 18 hours
Experimental: (§1) Method: The minimum inhibitory concentration (MIC) of the compounds and control drugs, linezolid (antibiotic), vancomycin (antibiotic), 5-fluorocytosine (5-FC, antifungal drug), and fluconazole (antifungal drug) was determined using the broth microdilution method according to the guidelines outlined by the Clinical and Laboratory Standards Institute (CLSI) against clinically relevant bacterial (methicillin-resistant Staphylococcus aureus (MRSA), vancomycin-resistant Enterococcus faecalis (VRE), vancomycin-resistant Enterococcus faecium (VRE), Clostridioides difficile and Escherichia coli) and fungal (Candida albicans) strains. A solution equivalent to 0.5 McFarland standard was prepared from each strain and diluted in cation-adjusted Mueller-Hinton broth (for S. aureus and E. coli), tryptone soy broth (for E. faecalis), or brain heart infusion broth (for E. faecium) to achieve a bacterial inoculum of about 5×10^5 CFU/mL. C. difficile strains were cultured in brain heart infusion broth supplemented with hemin and vitamin K. C. albicans was diluted in RPMI medium supplemented with 3-(N-morpholino) propanesulfonic acid to achieve a fungal concentration of about 1.5×10^3 CFU/mL. Compounds and control drugs were added in the first row of the 96-well plates and diluted with media containing bacteria (to achieve a concentration gradient ranging from 128 to 1 μg/mL). For MRSA, VRE, and E. coli strains, plates were then incubated aerobically at 37° C. for at least 18 hours. C. albicans was incubated aerobically at 37° C. for 24 hours. Plates containing C. difficile were incubated anaerobically at […] for 48 hours.

E. coli (TolC mutant) = assay: MIC by broth microdilution against E. coli (TolC mutant); assay type: cell-based, Escherichia coli; details: aerobic, 37° C., at least 18 hours
Experimental: as §1

C. albicans = assay: Broth microdilution against Candida albicans; assay type: cell-based; details: gradient 128 to 1 μg/mL, 24 hours
Experimental: as §1

[1] = In vivo safety profile and toxicity (maximum tolerated dose) in mice
Experimental: Aminomethyllactone 27 was evaluated for any possible toxicity at oral doses higher than the anticipated dose that will be used for antimicrobial efficacy. The maximum tolerated dose (MTD) in mice was calculated and was expected to be several folds higher than therapeutic dose. The MTD is a dose that produces neither mortality nor more than a 10% decrement in body weight nor clinical signs of toxicity or a significant change in renal and/or hepatic function in the survivors. Having shown that 10 mg/kg in mice is not toxic in our initial mouse model studies, 10, 25, 50, 100, 200, 400 mg/kg doses of 27 were chosen, each dose was given one time to one mouse, and the mice were observed daily for 14 days for body weight gain, clinical signs of abnormality, and renal and hepatic function.
At the end of the study, all animals appeared to be healthy and have good body weight. They were then euthanized, and the major organ (heart, liver, lung, kidney, spleen, and intestines) tissues were harvested for histological examination of toxicity. The evaluator was blinded to the treatment status of each mouse at the time of examination. […] Overall, 27 appears to be non-toxic to mice.

C. difficile ATCC 43255 = assay: CDI mouse recurrence model; assay type: in vivo, C57BL/6 mice; details: for signs of disease during therapy / survival by day 11: 10 mg/kg daily for 5 days
Text: For mouse recurrence, two models were used for testing the efficacy of aminomethyllactone 27 for preventing recurrence after treatment with vancomycin. The two models used were A—Chen et al model and B— a more aggressive protocol that was developed using modified Chen et al. protocol antibiotic cocktail (applying 3× times the doses of the antibiotics). In brief, groups of 12-weeks-old female C57BL/6 mice were sensitized to CDI by giving either the antibiotic cocktail described above or 3× the dose of antibiotics cocktail in the drinking water for 5 days. Then mice were treated with clindamycin (10 mg/kg) two days after withdrawal of the antibiotic cocktail. One day after clindamycin treatment, mice were infected orally with 1.9×10^6 CFU spore suspension of C. difficile ATCC 43255 [32]. Two hours after infection, animals were divided into groups (n=10), and groups received either Compound 27 (10 mg/kg) or vancomycin (10 mg/kg) by gavage daily for 5 days. Treatment was stopped at day 5, and mice were monitored for an additional 23 days. […] However, from day 9 onward (4 days after vancomycin was discontinued), vancomycin-treated mice developed CDI. By day 11, only 60% of the mice treated with vancomycin had survived in the original protocol (lx antibiotic), and there was 0% survival in the aggressive antibiotic protocol (3× antibiotic). […] Symptomatic recurrence of CDI occurs in approximately 20% of patients and is challenging to treat. In addition to subsequent prolongation of C. difficile shedding and transmission, 1 out of every 5 patients with CDI, who experienced a recurrence of the infection, died within 30 days of diagnosis. Compound 27, which reduces recurrences, can potentially prolong the clinical utility of current antibiotics (vancomycin and fidaxomicin).

Compound | MIC E. faecalis (VRE) (E. faecalis (VRE)) [µg/mL] | MIC E. coli (TolC mutant) (E. coli (TolC mutant)) [µg/mL] | activity against C. albicans (C. albicans) | toxicity in initial mouse model studies ([1]; 10 mg/kg in mice) | histological examination of major organ tissues ([1]; heart, liver, lung, kidney, spleen, intestines, end of 14-day study) | toxicity to mice ([1]; single oral doses 10, 25, 50, 100, 200, 400 mg/kg, observed 14 days) | signs of disease during therapy (C. difficile ATCC 43255) | survival of mice (C. difficile ATCC 43255; 28 days, 10 mg/kg oral daily for 5 days) [%] | recurrence of CDI (C. difficile ATCC 43255; for 28 days, 10 mg/kg oral daily for 5 days) | survival by day 11 (C. difficile ATCC 43255; aggressive antibiotic protocol (3× antibiotic)) [%] | survival by day 11 (C. difficile ATCC 43255; original protocol (1x antibiotic)) [%] | day from which treated mice developed CDI (C. difficile ATCC 43255; treatment stopped at day 5) [days]
COc1cc(C2OC(=O)C(CN3CCCCC3)C2c2ccccc2Br)ccc1OCc1ccccc1 (racemic) [Compound 27] | >128 | >128 | inactive | not toxic | within normal histologic limits | non-toxic | no signs of disease | 100 | no recurrence |  |  | 
C=C1C(=O)O[C@H](c2ccccc2O)[C@@H]1c1cccc(C#N)c1 (racemic) [Compound 50] | >128 | >128 | inactive |  |  |  |  |  |  |  |  | 
CN[C@H](CC(C)C)C(=O)N[C@H]1C(=O)N[C@@H](CC(N)=O)C(=O)N[C@H]2C(=O)N[C@H]3C(=O)N[C@H](C(=O)N[C@H](C(=O)O)c4cc(O)cc(O)c4-c4cc3ccc4O)[C@H](O)c3ccc(c(Cl)c3)Oc3cc2cc(c3O[C@@H]2O[C@H](CO)[C@@H](O)[C@H](O)[C@H]2O[C@H]2C[C@](C)(N)[C@H](O)[C@H](C)O2)Oc2ccc(cc2Cl)[C@H]1O [Vancomycin, reference compound] |  |  |  |  |  |  | no signs of disease |  |  | 0 | 60 | ≥ 9
